Assay results taken from patent US7358237B2, “Inducible nitric oxide synthase binds, S-nitrosylates, and activates cyclooxygenase-2” (The Johns Hopkins University, priority 2005, dated 2008).
Values belong to the molecule of their own block, whether it stands above or below them.

Key:
COX2 [1] = biological target: T1, COX2 (Homo sapiens, UniProt P35354); experiment: S-nitrosylation of COX2 (biotin switch assay) in HEK293T cells transfected with COX2-myc; type: cell-based; conditions: for S-nitrosylation of COX2 by NO donors and H2O2: HEK293T cells transfected with COX2-myc, biotin switch, GSNO 100 μM, SNP 100 μM, Spermine-NO 100 μM, DETA-NO 500 μM
T1 construct: myc; expressed in transfected cells; host or cells: HEK293T
T1 sequence (P35354 18-604): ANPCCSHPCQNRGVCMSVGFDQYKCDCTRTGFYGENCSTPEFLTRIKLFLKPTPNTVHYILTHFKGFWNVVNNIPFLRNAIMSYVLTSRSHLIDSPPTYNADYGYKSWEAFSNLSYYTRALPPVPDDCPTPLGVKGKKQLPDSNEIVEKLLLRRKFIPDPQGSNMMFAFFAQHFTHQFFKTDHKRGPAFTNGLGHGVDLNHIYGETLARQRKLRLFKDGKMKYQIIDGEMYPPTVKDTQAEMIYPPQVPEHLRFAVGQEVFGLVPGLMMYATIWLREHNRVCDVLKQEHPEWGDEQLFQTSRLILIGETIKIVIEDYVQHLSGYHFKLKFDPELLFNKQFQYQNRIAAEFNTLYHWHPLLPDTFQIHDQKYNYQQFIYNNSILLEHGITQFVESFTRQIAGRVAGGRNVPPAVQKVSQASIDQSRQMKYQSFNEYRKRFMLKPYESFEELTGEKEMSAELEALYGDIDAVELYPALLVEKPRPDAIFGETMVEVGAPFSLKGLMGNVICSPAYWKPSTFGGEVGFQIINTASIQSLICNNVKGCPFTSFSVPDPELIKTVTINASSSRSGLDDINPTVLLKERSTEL
From the text: Plasmid Constructions. Full length human cyclooxygenase2-encoding gene (gene bank sequence NM_000963) was purchased from ATCC in pCMV•SPORT6 vector. The sequence was amplified by PCR using primers harboring Sal1/Not1 restriction sites and cloned into the pCMV-Myc vector (Clontech, Palo Alto, Calif.). The murine inducible nitric oxide synthase (accession number NM_010927) cloned into the pcDNA3.1+vector (Invitrogen, Carlsbad, Calif.).
(§1) S-nitrosylation assay. Cells were homogenized by 26G needle in HEN ([…] Hepes-NaOH pH 7.7, 1 mM EDTA, 0.1 mM Neocuproine) buffer and then centrifuged at 1000 g for 10 min at 4° C. Cells lysates (240 μg) was added 4 vol of blocking buffer (9 vol of HEN buffer plus 1 vol 25% SDS, adjusted to 20 mM MMTS with a 2 M stock prepared in dimethylformamide (DMF)) at 50° C. for 20 min with frequent vortexing. The MMTS was then removed by desalting three times with the MicroBioSpin6 column (Bio-Rad, Hercules, Calif.) pre-equilibrated in HEN buffer. To the eluate was added biotin-HPDP prepared fresh as a 4 mM stock in DMSO from a 50 mM stock suspension in DMF. Sodium ascorbate was added to a final concentration of 1 mM. After incubation for 1 h at 25° C., biotinylated proteins were precipitated by streptavidin-agarose beads. The streptavidin-agarose was then pelleted and washed 5 times using HENS buffer. The biotinylated proteins were eluted by SDS-PAGE sample buffer and subjected to Western-blot analysis.

RAW264.7 cells [2] = experiment: PGE2 formation in RAW264.7 cells in response to LPS/IFNγ (PGE2 ELISA); type: cell-based, murine; conditions: for PGE2 formation in response to LPS/IFNγ: 1400W various concentrations overnight, L-NAME 500 μM, D-NAME 500 μM
Method: Measurement of PGE2. Cells were washed with worm PBS (×2) and incubated in the phenol free Dulbecco's modified Eagle's medium supplemented with 20 μM arachidonic acid and 3% albumin for 20 min. Media was collected and PGE2 production was measured with a PGE2 ELISA kit from Assay Design (Ann Arbor, Mich.) according to the manufacturer's instructions.

COX2 [3] = biological target: T1, COX2; experiment: COX2 enzyme activity in cell lysate of COX2-myc transfected HEK293T cells; type: biochemical
Method: COX2 enzymatic assay. […] COX2 enzymatic activity was measured with a COX assay kit (Cayman Biochemical Inc, Ann Arbor, Mich.) according to the manufacturer's instructions.
To determine whether S-nitrosylation of COX2 alters enzyme activity, we examined COX2 enzyme activity in HEK293T cells transfected with COX2-myc.

iNOS and COX2 binding = biological target: T2, iNOS and COX2 binding (Mus musculus, UniProt P29477+Q05769); experiment: Co-immunoprecipitation of iNOS and COX2 in LPS/IFNγ-induced RAW264.7 cells; type: cell-based, murine
T2 construct: endogenous in cells; host or cells: RAW264.7 murine macrophages induced with LPS/IFNγ

COX2 [4] = experiment: S-nitrosylation of COX2 in RAW264.7 cells treated with LPS/IFNγ (biotin switch and fluorometric detection); type: cell-based, murine; conditions: 1400W 100 μM, fragment transfected
Method: as §1
Fluorometric detection of S-nitrosothiols. The methods were modified according to Cook et al.(2) RAW264.7 cells were treated with LPS/IFNγ for overnight and COX2 was immunoprecipitated by donkey anti-rat COX2 antibodies. After that the samples were reacted with 100 μM 2,3-diaminonaphthalene (DAN) in the presence of 100 μM of HgCl2 and incubated in darkness for 30 min at room temperature. The generated fluorescent compound 2,3-napththyltrazole (NAT) was then measured at an excitation wavelength of 375 nm and an emission wavelength of 450 nm.

RAW264.7 cells [5] = experiment: Confocal immunofluorescence of endogenous PGE2 in RAW264.7 cells transfected with COX2-myc fragments; type: cell-based, murine; conditions: RAW264.7 cells activated by LPS/IFNγ
Method: Immunohistochemistry. RAW264.7 cells were transfected with deletion constructs of COX2. Cells were fixed in 4% paraformaldehyde in PBS for 5 min, permeablized in 0.1% Triton X-100 for 10 s, and then rinsed twice in PBS. Coverslips were then blocked in 10% goat serum at room temperature for 1 h and incubated with PGE2 (Cayman Biochemical Inc, Ann Arbor, Mich.) and myc antibodies for 24 hr at 4° C. Rhodamine or fluorescein-conjugated secondary antibodies (Jackson Immunochemicals, West Grove, Pa.) were then added at 10 μg/ml for 1 hr at room temperature as indicated. Coverslips were mounted in ProLong (Molecular Probes, Eugene, Oreg.). Confocal microscopy, in which the immunofluorescent staining is superimposed on phase contrast images, employed a Noran OZ (Noran Instruments, Middleton, Wis.) confocal laser-scanning system, fitted to an Olympus IX-50 fluorescence microscope.

Molecule: N[C@@H](CCC(=O)N[C@@H](CSN=O)C(=O)NCC(=O)O)C(=O)O [GSNO, nitrosoglutathione]
S-nitrosylation of COX2 by NO donors and H2O2 (COX2 [1]): elicit S-nitrosylation

S-nitrosylation of COX2 by NO donors and H2O2 (COX2 [1]): elicit S-nitrosylation
Molecule: NCCN(CCN)/[N+]([O-])=N/O [DETA-NONOate]

Molecule: COC(=O)[C@H](N)CCCN=C(N)N[N+](=O)[O-] [D-NAME]
PGE2 formation in response to LPS/IFNγ (RAW264.7 cells [2]; RAW264.7 cells): not

S-nitrosylation of COX2-myc in the presence of SNP (COX2 [1]; SNP 200 μM, ASC 500 μM): reversed
Increase of COX2 activity by SNP (COX2 [3]; SNP 200 μM plus ascorbate 500 μM): prevents the increase
COX2 activity in preparations not treated by SNP (COX2 [3]; ascorbate 500 μM, no SNP): fails to affect
Molecule: O=C1O[C@H]([C@@H](O)CO)C(O)=C1O [ascorbic acid]

Co-precipitation of iNOS and COX2 (iNOS and COX2 binding; RAW264.7 cells induced by LPS/IFNγ, inhibitor 100 μM, immunoprecipitation with anti-iNOS or anti-COX2 antibodies): unaffected
Molecule: CC(=N)NCc1cccc(CN)c1 [1400W]
S-nitrosylation of COX2 (COX2 [4]): prevented
PGE2 formation in response to LPS/IFNγ (RAW264.7 cells [2]; RAW264.7 cells): inhibited

Molecule: N=C(N)NCCC[C@H](N)C(=O)O [L-arginine]
Effects of L-NAME on PGE2 formation (RAW264.7 cells [2]; RAW264.7 cells, LPS/IFNγ, L-NAME 500 μM + L-Arg 1 mM): reversed

S-nitrosylation of COX2 by NO donors and H2O2 (COX2 [1]): elicit S-nitrosylation
Molecule: NCCCNCCCCN(CCCN)/[N+]([O-])=N/O [spermine-NO]

Molecule: COC(=O)[C@@H](N)CCCNC(=N)N[N+](=O)[O-] [L-NAME, nitro-argininemethylester]
PGE2 formation in response to LPS/IFNγ (RAW264.7 cells [2]; RAW264.7 cells): inhibition of PGE2 formation

Molecule: hemoglobin: sequesters freely diffusible NO
S-nitrosylation of COX2 (COX2 [4]): fails to alter

Molecule: OO [H2O2]
S-nitrosylation of COX2 by NO donors and H2O2 (COX2 [1]): does not elicit S-nitrosylation

Co-precipitation of iNOS and COX2 (iNOS and COX2 binding; fragment transfected into RAW264.7 cells, LPS/IFNγ, immunoprecipitation with anti-iNOS): abolishes
B1: 484-604: dominant-negative myc-tagged fragment of COX2, amino acids 484-604, which binds iNOS (protein)
chain: IDAVELYPALLVEKPRPDAIFGETMVEVGAPFSLKGLMGNVICSPAYWKPSTFGGEVGFQIINTASIQSLICNNVKGCPFTSFSVPDPELIKTVTINASSSRSGLDDINPTVLLKERSTEL
S-nitrosylation of COX2 (COX2 [4]): decreases
Reduction of PGE2 formation (RAW264.7 cells [2]; dominant-negative fragment transfected into RAW264.7 cells, LPS/IFNγ): more than 50%
PGE2 expression level in transfected cell compared to non-transfected cell (immunofluorescent staining) (RAW264.7 cells [5]): reduction

B2: 1-483: myc-tagged fragment of COX2 comprising amino acids 1-483, which does not bind iNOS (protein)
chain: ANPCCSHPCQNRGVCMSVGFDQYKCDCTRTGFYGENCSTPEFLTRIKLFLKPTPNTVHYILTHFKGFWNVVNNIPFLRNAIMSYVLTSRSHLIDSPPTYNADYGYKSWEAFSNLSYYTRALPPVPDDCPTPLGVKGKKQLPDSNEIVEKLLLRRKFIPDPQGSNMMFAFFAQHFTHQFFKTDHKRGPAFTNGLGHGVDLNHIYGETLARQRKLRLFKDGKMKYQIIDGEMYPPTVKDTQAEMIYPPQVPEHLRFAVGQEVFGLVPGLMMYATIWLREHNRVCDVLKQEHPEWGDEQLFQTSRLILIGETIKIVIEDYVQHLSGYHFKLKFDPELLFNKQFQYQNRIAAEFNTLYHWHPLLPDTFQIHDQKYNYQQFIYNNSILLEHGITQFVESFTRQIAGRVAGGRNVPPAVQKVSQASIDQSRQMKYQSFNEYRKRFMLKPYESFEELTGEKEMSAELEALYGD
Influence on PGE2 formation (RAW264.7 cells [2]; fragment transfected into RAW264.7 cells, LPS/IFNγ): fails to influence
PGE2 expression level in transfected cell compared to non-transfected cell (immunofluorescent staining) (RAW264.7 cells [5]): does not show a reduction
